Experimental data published in ChEMBL document CHEMBL1201862, “PubChem BioAssay data set” (2004).
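Method: 48-hour compound exposure of cells in 96-well plates, five concentrations, linear interpolation of endpoints. At the GI50, growth is halved.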 Activity calls are given as the source filed them. No stated cut-off is given here; in the data, active = GI50 up to about 1.1 µM and inactive = higher.

Tests used:
Experiment in all cases: growth of human tumour cells (NCI), 48 h
[1] = system: ACHN
[2] = system: BT-549
[3] = system: CCRF-CEM
[4] = system: HCT-116
[5] = system: Hs-578T
[6] = system: MDA-MB-435
[7] = system: NCI-H23
[8] = system: NCI-H522
[9] = system: OVCAR-3
[10] = system: OVCAR-5
[11] = system: OVCAR-8
[12] = system: PC-3
[13] = system: RXF 393
[14] = system: SF-295
[15] = system: SK-MEL-28
[16] = system: SN12C
[17] = system: SNB-75
[18] = system: UACC-257
[19] = system: UO-31
[20] = system: K562

| Structure (SMILES) | GI50 [1] | GI50 [2] | GI50 [3] | GI50 [4] | GI50 [5] | GI50 [6] | GI50 [7] | GI50 [8] | GI50 [9] | GI50 [10] | GI50 [11] | GI50 [12] | GI50 [13] | GI50 [14] | GI50 [15] | GI50 [16] | GI50 [17] | GI50 [18] | GI50 [19] | GI50 [20] |
| --- | --- | --- | --- | --- | --- | --- | --- | --- | --- | --- | --- | --- | --- | --- | --- | --- | --- | --- | --- | --- |
| C1CNCCN2CCCNCCN(C1)CC2 | > 100 µM (inactive) | > 100 µM (inactive) | 2 µM (inactive) | > 100 µM (inactive) | > 100 µM (inactive) | > 100 µM (inactive) | > 100 µM (inactive) | > 100 µM (inactive) | > 100 µM (inactive) | > 100 µM (inactive) | > 100 µM (inactive) | > 100 µM (inactive) | > 100 µM (inactive) | > 100 µM (inactive) | > 100 µM (inactive) | > 100 µM (inactive) | > 100 µM (inactive) | > 100 µM (inactive) | > 100 µM (inactive) | – |
| Cc1cc(C)c(S(=O)(=O)N(CCCN)OCCCON(CCCN)S(=O)(=O)c2c(C)cc(C)cc2C)c(C)c1 | 15.3 µM (inactive) | 3.1 µM (inactive) | 2.3 µM (inactive) | 1.75 µM (inactive) | 1.49 µM (inactive) | 2.03 µM (inactive) | 2.18 µM (inactive) | 1.47 µM (inactive) | 2.03 µM (inactive) | 2.2 µM (inactive) | 3.68 µM (inactive) | 1.82 µM (inactive) | 4.6 µM (inactive) | 7.66 µM (inactive) | 1.91 µM (inactive) | 3.91 µM (inactive) | 1.86 µM (inactive) | 1.82 µM (inactive) | 16.7 µM (inactive) | 2.69 µM (inactive) |
| Cn1c(=O)c2c(nc(N)n2C2OC(CO)C(O)C2O)n(C)c1=O (configuration not stated) | > 100 µM (inactive) | > 100 µM (inactive) | > 100 µM (inactive) | > 100 µM (inactive) | > 100 µM (inactive) | > 100 µM (inactive) | > 100 µM (inactive) | > 100 µM (inactive) | > 100 µM (inactive) | > 100 µM (inactive) | > 100 µM (inactive) | > 100 µM (inactive) | > 100 µM (inactive) | > 100 µM (inactive) | > 100 µM (inactive) | > 100 µM (inactive) | > 100 µM (inactive) | > 100 µM (inactive) | > 100 µM (inactive) | > 100 µM (inactive) |
| O=C(/C=C/c1ccc(-c2ccccc2)cc1)NCc1ccc(C(=O)NCc2ccccc2)cc1 | > 100 µM (inactive) | > 100 µM (inactive) | > 100 µM (inactive) | > 100 µM (inactive) | > 100 µM (inactive) | > 100 µM (inactive) | 90.2 µM (inactive) | > 100 µM (inactive) | > 100 µM (inactive) | > 100 µM (inactive) | > 100 µM (inactive) | > 100 µM (inactive) | 12.7 µM (inactive) | > 100 µM (inactive) | > 100 µM (inactive) | > 100 µM (inactive) | > 100 µM (inactive) | > 100 µM (inactive) | > 100 µM (inactive) | – |
| O=C1CCc2cc([N+](=O)[O-])ccc2O1 | > 100 µM (inactive) | > 100 µM (inactive) | > 100 µM (inactive) | > 100 µM (inactive) | > 100 µM (inactive) | > 100 µM (inactive) | > 100 µM (inactive) | > 100 µM (inactive) | > 100 µM (inactive) | > 100 µM (inactive) | > 100 µM (inactive) | > 100 µM (inactive) | > 100 µM (inactive) | > 100 µM (inactive) | > 100 µM (inactive) | > 100 µM (inactive) | > 100 µM (inactive) | > 100 µM (inactive) | – | > 100 µM (inactive) |
| COc1ccc(-n2c(N)c(C#N)c(C#N)c2-c2cccc([N+](=O)[O-])c2)cc1 | 91 µM (inactive) | > 100 µM (inactive) | 5.31 µM (inactive) | – | 15.3 µM (inactive) | > 100 µM (inactive) | > 100 µM (inactive) | > 100 µM (inactive) | > 100 µM (inactive) | > 100 µM (inactive) | 88.9 µM (inactive) | 33.5 µM (inactive) | 2.55 µM (inactive) | 42.5 µM (inactive) | – | > 100 µM (inactive) | 2.96 µM (inactive) | > 100 µM (inactive) | 15 µM (inactive) | > 100 µM (inactive) |
| COc1cc(/C=N/NC(=O)c2ccc(NC(C)=O)cc2OC)ccc1O | 38.9 µM (inactive) | > 100 µM (inactive) | > 100 µM (inactive) | 61.8 µM (inactive) | 32.4 µM (inactive) | > 100 µM (inactive) | 54.6 µM (inactive) | 96.2 µM (inactive) | > 100 µM (inactive) | > 100 µM (inactive) | > 100 µM (inactive) | 43.5 µM (inactive) | 39.3 µM (inactive) | 55 µM (inactive) | > 100 µM (inactive) | > 100 µM (inactive) | 26.7 µM (inactive) | – | > 100 µM (inactive) | > 100 µM (inactive) |
| NC1(CCNC(=O)c2ccccc2)CCN(C(=O)c2ccccc2)CC1 | > 100 µM (inactive) | > 100 µM (inactive) | > 100 µM (inactive) | > 100 µM (inactive) | > 100 µM (inactive) | > 100 µM (inactive) | > 100 µM (inactive) | 3.67 µM (inactive) | – | > 100 µM (inactive) | > 100 µM (inactive) | > 100 µM (inactive) | > 100 µM (inactive) | > 100 µM (inactive) | – | > 100 µM (inactive) | 0.548 µM (active) | > 100 µM (inactive) | > 100 µM (inactive) | > 100 µM (inactive) |
| N#Cc1nc(C2CC2)oc1N | > 100 µM (inactive) | > 100 µM (inactive) | 38.4 µM (inactive) | > 100 µM (inactive) | > 100 µM (inactive) | > 100 µM (inactive) | > 100 µM (inactive) | 25.2 µM (inactive) | > 100 µM (inactive) | > 100 µM (inactive) | > 100 µM (inactive) | > 100 µM (inactive) | > 100 µM (inactive) | > 100 µM (inactive) | > 100 µM (inactive) | > 100 µM (inactive) | > 100 µM (inactive) | > 100 µM (inactive) | – | > 100 µM (inactive) |
| CCC1=C(CC2NCCc3ccccc32)CC2c3cc(OC)c(OC)cc3CCN2C1 (configuration not stated) | 0.367 µM (active) | 2.14 µM (inactive) | 0.357 µM (active) | 0.307 µM (active) | 0.44 µM (active) | 0.327 µM (active) | 0.94 µM (active) | 0.316 µM (active) | 0.841 µM (active) | 0.579 µM (active) | 0.445 µM (active) | 0.333 µM (active) | 0.635 µM (active) | 0.565 µM (active) | 1.16 µM (inactive) | 0.5 µM (active) | 0.531 µM (active) | 1.02 µM (active) | 0.736 µM (active) | 0.286 µM (active) |
| O=[N+]([O-])c1ccc(C2ON=C(c3ccccc3)N2C23CC4CC(CC(C4)C2)C3)cc1 (configuration not stated) | > 10 µM (inactive) | > 10 µM (inactive) | > 10 µM (inactive) | > 10 µM (inactive) | 6.75 µM (inactive) | > 10 µM (inactive) | > 10 µM (inactive) | > 10 µM (inactive) | > 10 µM (inactive) | > 10 µM (inactive) | > 10 µM (inactive) | > 10 µM (inactive) | > 10 µM (inactive) | > 10 µM (inactive) | > 10 µM (inactive) | > 10 µM (inactive) | 5.6 µM (inactive) | > 10 µM (inactive) | – | > 10 µM (inactive) |
| Cc1nc(Nc2ccccc2Cl)sc1C(=O)CC(=O)C(N)=O | 32.7 µM (inactive) | > 100 µM (inactive) | 32.6 µM (inactive) | 10.9 µM (inactive) | 59.2 µM (inactive) | 16 µM (inactive) | 28.2 µM (inactive) | 1.96 µM (inactive) | > 100 µM (inactive) | > 100 µM (inactive) | 54.7 µM (inactive) | 19.7 µM (inactive) | 48.8 µM (inactive) | 34.8 µM (inactive) | – | 37.8 µM (inactive) | 6.87 µM (inactive) | > 100 µM (inactive) | 21.7 µM (inactive) | 33.4 µM (inactive) |
| c1ccc(C2=Nc3nc4ccccc4n3C(c3ccccc3)C2)cc1 (configuration not stated) | > 100 µM (inactive) | > 100 µM (inactive) | > 100 µM (inactive) | > 100 µM (inactive) | 45.5 µM (inactive) | 36 µM (inactive) | > 100 µM (inactive) | > 100 µM (inactive) | > 100 µM (inactive) | > 100 µM (inactive) | > 100 µM (inactive) | > 100 µM (inactive) | 41 µM (inactive) | 79.8 µM (inactive) | > 100 µM (inactive) | – | 27.9 µM (inactive) | > 100 µM (inactive) | > 100 µM (inactive) | > 100 µM (inactive) |
| Cc1ccc2cc3c(ccc4ccccc43)c3c2c1CC3 [3-METHYLCHOLANTHRENE] | > 100 µM (inactive) | > 100 µM (inactive) | > 100 µM (inactive) | > 100 µM (inactive) | 83.9 µM (inactive) | > 100 µM (inactive) | > 100 µM (inactive) | > 100 µM (inactive) | > 100 µM (inactive) | – | > 100 µM (inactive) | > 100 µM (inactive) | > 100 µM (inactive) | > 100 µM (inactive) | > 100 µM (inactive) | > 100 µM (inactive) | > 100 µM (inactive) | > 100 µM (inactive) | > 100 µM (inactive) | > 100 µM (inactive) |
